The source of these data is ChEMBL document CHEMBL2424632, “Substituted 2-hydroxy-N-(arylalkyl)benzamides induce apoptosis in cancer cell lines” (Eur J Med Chem, 2013).

As usually defined, the IC50 is the point on the concentration scale where inhibition reaches its midpoint.

The test system of experiment [1] is K562. The experiment is described as follows: Cytotoxicity against human K562 cells after 72 hrs by calcein-AM assay. The class given is functional, cell-based. The following applies: K562, 72 h.
Experiment [2] relates to MCF7. As to the kind of experiment: Cytotoxicity against human MCF7 cells after 72 hrs by calcein-AM assay. It is filed as functional, cell-based. The following applies: MCF7, 72 h.

On to `O=C(N[C@H](Cc1ccccc1)C(=O)Nc1cccc(Cl)c1)c1cc(Cl)ccc1O`, for which the values for the IC50 in experiment [1] and in experiment [2] were over 20 µM and 18.4 µM, respectively. For `C[C@H](NC(=O)c1cc(Cl)ccc1O)C(=O)Nc1cccc(Cl)c1`, the IC50 in experiment [1] and in experiment [2] was over 10 µM throughout. With `C[C@H](NC(=O)c1ccc(Cl)cc1O)C(=O)Nc1ccc(C(F)(F)F)cc1`, the IC50 in experiment [1] and in experiment [2] was over 12.5 µM in each case.

`CC(C)[C@H](NC(=O)c1cc(Cl)ccc1O)C(=O)Nc1ccccc1`: the IC50 in experiment [1] and in experiment [2] was over 10 µM in each case. In the case of `COc1ccc(NC(=O)[C@@H](NC(=O)c2cc(Cl)ccc2O)C(C)C)cc1`, the IC50 in experiment [1] and in experiment [2] was over 10 µM throughout. Turning to `CC(C)[C@H](NC(=O)c1cc(Cl)ccc1O)C(=O)Nc1ccc(Cl)c(Cl)c1`, the IC50 in experiment [1] and in experiment [2] was over 10 µM throughout. With `CC(C)[C@H](NC(=O)c1ccc(Cl)cc1O)C(=O)Nc1ccc(Br)cc1`, the IC50 in experiment [1] and in experiment [2] was over 10 µM throughout.

In the case of `C[C@H](NC(=O)c1ccc(Cl)cc1O)C(=O)Nc1ccc(Cl)cc1`, the IC50 in experiment [1] and in experiment [2] was over 10 µM each time. Regarding `O=C(CNC(=O)c1cc(Cl)ccc1O)Nc1cccc(Cl)c1`, the IC50 in experiment [1] and in experiment [2] was over 10 µM in each case. Turning to `C[C@H](NC(=O)c1cc(Cl)ccc1O)C(=O)Nc1ccc(C(F)(F)F)cc1`, the IC50 in experiment [1] and in experiment [2] was over 12.5 µM each time. Regarding `O=C(N[C@@H](Cc1ccccc1)C(=O)Nc1ccc(Cl)c(Cl)c1)c1ccc(Cl)cc1O`, the IC50 was over 10 µM in experiment [1] and 7.3 µM in experiment [2].

Take `O=C(CNC(=O)c1cc(Cl)ccc1O)Nc1ccc(Cl)c(Cl)c1`: the IC50 in experiment [1] and in experiment [2] was over 20 µM in each case. Regarding `O=C(N[C@@H](Cc1ccccc1)C(=O)Nc1cccc(Cl)c1)c1cc(Cl)ccc1O`, the IC50 in experiment [1] and in experiment [2] was over 10 µM in each case. For the compound `C[C@H](NC(=O)c1ccc(Cl)cc1O)C(=O)Nc1ccc(Cl)c(Cl)c1`, the half-inhibitory concentration (IC50) in experiment [1] and in experiment [2] was over 12.5 µM in each case. As for `Cc1ccc(NC(=O)c2ccc(CN3CCN(C)CC3)cc2)cc1Nc1nccc(-c2cccnc2)n1` [IMATINIB], the IC50 in experiment [1] was 0.5 µM; in experiment [2] it was over 10 µM. Turning to `O=C(N[C@@H](Cc1ccccc1)C(=O)Nc1ccc(Cl)cc1)c1ccc(Cl)cc1O`, the IC50 in experiment [1] was over 10 µM; in experiment [2], 9.1 µM. For `CC(C)[C@H](NC(=O)c1ccc(Cl)cc1O)C(=O)Nc1ccc(Cl)cc1` the same measures were over 10 µM and over 10 µM. Take `Cc1ccc(NC(=O)[C@H](C)NC(=O)c2cc(Cl)ccc2O)cc1`: the IC50 in experiment [1] and in experiment [2] was over 10 µM throughout. Take `O=C(N[C@H](Cc1ccccc1)C(=O)Nc1ccc(Cl)cc1)c1ccc(Cl)cc1O`: the concentration for half-maximal inhibition (IC50) in experiment [1] and in experiment [2] was over 10 µM throughout. Consider `CC(C)[C@H](NC(=O)c1cc(Cl)ccc1O)C(=O)Nc1cccc(Cl)c1`, for which the IC50 in experiment [1] and in experiment [2] was over 10 µM in each case. As for `C[C@@H](NC(=O)c1cc(Cl)ccc1O)C(=O)Nc1ccc(Cl)cc1`, the IC50 in experiment [1] and in experiment [2] was over 20 µM each time. In the case of `O=C(N[C@@H](Cc1ccccc1)C(=O)Nc1ccc(Cl)cc1)c1cc(Cl)ccc1O`, the values for the IC50 in experiment [1] and in experiment [2] were over 10 µM and 7.9 µM, respectively. Turning to `CC(C)[C@@H](NC(=O)c1cc(Cl)ccc1O)C(=O)Nc1cccc(Cl)c1`, the IC50 in experiment [1] and in experiment [2] was over 10 µM in each case. Regarding `CC[C@H](CO)Nc1nc(NCc2ccccc2)c2ncn(C(C)C)c2n1` [SELICICLIB], the IC50 in experiment [2] is 12.3 µM.

In the case of `O=C(N[C@H](Cc1ccccc1)C(=O)Nc1ccc(Cl)c(Cl)c1)c1cc(Cl)ccc1O`, the IC50 in experiment [1] and in experiment [2] was over 10 µM each time. As for `C[C@@H](NC(=O)c1ccc(Cl)cc1O)C(=O)Nc1ccc(Cl)cc1`, the IC50 in experiment [1] and in experiment [2] was over 10 µM each time. Turning to `O=C(N[C@@H](Cc1ccccc1)C(=O)Nc1ccc(Cl)c(Cl)c1)c1cc(Cl)ccc1O`, the IC50 in experiment [1] and in experiment [2] was over 10 µM in each case.
